Consider 1 compound from patent publication US8809265B2, “Methods for treating HCV” (AbbVie Inc., priority 2011, dated 2014).

Molecules are shown by their SMILES.

This series in a line: bioequivalence of solid formulations of Compound 2. The following applies: 250 mg in improved solid formulation (increased binder, e.g. copovidone) versus 400 mg in original formulation. The series is classed as in vivo. The text has this:
Accordingly, in one aspect, the present technology features a method of treating HCV infection, comprising administering to a patient in need thereof an effective amount of a combination of two or more DAAs. […] The DAAs can be administered at the same or different dosing frequencies. The patient being treated can be a treatment naïve patient, a treatment experienced patient, including, but not limited to, a relapser, an interferon partial responder, or an interferon non-responder; or a patient unable to take interferon. The patient may be infected with, for example and without limitation, HCV genotype 1, such as HCV genotype 1a or HCV genotype 1b; or HCV genotype 2 or 3. The treatment according to this aspect of the technology may also be effective against other HCV genotypes. The DAAs can be administered around the same time or at different times, and can be co-formulated in a single formulation or formulated in different compositions. Each DAA can be selected from HCV protease inhibitors, HCV polymerase inhibitors, or HCV NS5A inhibitors. […]

`COc1c(-c2ccc3cc(NS(C)(=O)=O)ccc3c2)cc(-n2ccc(=O)[nH]c2=O)cc1C(C)(C)C` [Compound 2, N-(6-(3-tert-butyl-5-(2,4-dioxo-3,4-dihydropyrimidin-1(2H)-yl)-2-methoxyphenyl)naphthalen-2-yl)methanesulfonamide]: the bioequivalence of formulations entry is “bioequivalent”.
